≈ marks a conversion by molar mass, not a printed value. Read-outs that look alike come from different tables or passages of the source.
What was measured:
[1] = Solubility measurement of freeze-dried nystatin formulations (NF) in distilled water; format: physicochemical; details: vortex mixed 5 min, 0.45 μm filtered, absorption at 307 nm
Description: An excess amount of each NF formulation from Example 1 was placed into 0.5 mL of distilled water, and mixed vigorously for 5 min with a vortex mixer. After filtering the slurry with a 0.45 μm syringe filter, the filtrate was diluted with dimethylformamide (DMF) for analysis. The amount of nystatin in each NF composition was calculated by absorption spectroscopy at 307 nm.

[2] = tested on: Saccharomyces cerevisiae, ATCC 4921; experiment: Minimal inhibitory concentration (MIC) in YPD broth; format: cell-based; details: 30° C., 24 hr, full inhibition by optical density at 600 nm
Description: NF samples were dissolved into DMSO and diluted with Bacto® YPD broth medium (10 g of Bacto® YPD in 200 mL of distilled water, and sterilized at 121° C.-124° C.), to give a nystatin level of 8 μg/mL. Nystatin levels were varied by serial dilution with broth medium to a level of 0.1 μg/mL. An aliquot (800 μL) of each nystatin sample was put into a microcentrifuge tube. 50 μL of the inoculum, containing 5×10^3 cfu/mL of Saccharomyces cerevisiae, ATCC 4921, in sterile distilled water, was added to each tube to give a total volume of 850 μL per tube. The tubes were incubated at 30° C. for 24 hr. A solvent control, Pluronic F127® control, and medium control were performed simultaneously to check the growth inhibiting activities of DMSO and Pluronic F127® as well as the sterility of the broth medium. […] The MIC for the nystatin formulations in accordance with the present invention was determined to be 3 μg/mL. The MIC of nystatin alone for Saccharomyces cerevisiae is about 3 μg/mL.

[3] = tested on: Saccharomyces cerevisiae; experiment: Minimal fungicidal concentration (MFC); format: cell-based; details: 2 hrs contact at 37° C., no colony on YPD agar plate after 24 hr at 30° C.
Description: For measurement of minimal fungicidal concentration (MFC), the same procedure as the MIC measurement was employed up to the incubation step. Tubes containing Saccharomyces cerevisiae were placed in an incubator at 37° C. for 2 hrs., so that the cells might be killed. After 2 hrs. contact with the sample, the surviving cells were precipitated on the bottom of the tube by centrifugation (12000 g, 20 sec), and the supernatant decanted. […] All experiments were repeated three times. The MFC for the compositions in accordance with the present invention was determined to be 3 μg/mL.

[4] = Critical aggregation concentration (CAC) of nystatin by light scattering; format: physicochemical
Description: Nystatin (16 mg) was dissolved into 0.3 mL of dimethylsulfoxide (DMSO) under light protection, and was added into 15 mL of various aqueous Pluronic F127® solutions ranging from 0.1%-2.0%, making a 1100 μM nystatin solution. Each solution was serially diluted with the corresponding Pluronic F127® solution until a 3.8 μM nystatin concentration was obtained. After incubation at 37° C. for 30 min, each solution was subjected to light scattering using fluorimeter with fixed excitation wavelength of 450 nm. Band widths for excitation and emission were set at 3 nm and 1.5 nm, respectively. […] The intersection point of two linear lines was defined as the critical aggregation concentration (CAC) where self-aggregation of nystatin molecules begins, leading to an abrupt increase of intensity of scattered light.

[5] = tested on: erythrocytes (red blood cells)
[6] = Monomerizing (light scattering) effect of various surfactants on nystatin; format: physicochemical; details: nystatin kept constant at 200 μM; FIG. 7
Description: Nystatin formulations were prepared with various surfactants similar to the method of Example 1. The concentration of drug was kept constant at 200 μM. The intensity of the scattered light was measured using a fluorimeter with a fixed excitation wavelength of […].

Compound | Solubility [1] [µg/mL] | Solubility ([1]; listed as pure nystatin) [µg/mL] | minimal inhibitory concentration (MIC) [2] | minimal fungicidal concentration (MFC) [3] [µg/mL] | CAC ([4]; distilled water alone) [µM] | CAC ([4]; distilled water containing 0.1% Pluronic F127, 37° C. 30 min) [µM] | CAC ([4]; distilled water containing 0.5% Pluronic F127, 37° C. 30 min) [µM] | CAC ([4]; distilled water containing 1.0% Pluronic F127, 37° C. 30 min) [µM] | CAC ([4]; distilled water containing 1.5% Pluronic F127, 37° C. 30 min) [µM] | CAC ([4]; distilled water containing 2.0% Pluronic F127, 37° C. 30 min) [µM] | concentration of nystatin causing 50% hemolysis ([5]; PBS pH 7.0 containing 0.1% Pluronic F127, FIG. 4) [µg/mL] | concentration of nystatin causing 50% hemolysis ([5]; PBS pH 7.0 containing 2% Pluronic F127, FIG. 4) [µg/mL] | 50% hemolysis inducing level of Nys ([5]; Table 1, erythrocytes in isotonic PBS, 37° C., 30 min) [µg/mL] | concentration of nystatin causing 50% hemolysis ([5]; isotonic PBS, FIG. 3) | surfactant level showing deaggregating activity (decrease of light scattering intensity) [6] | concentration of surfactant alone causing 50% hemolysis [5]
C[C@@H]1[C@H](O)[C@@H](C)/C=C/C=C/CC/C=C/C=C/C=C/C=C/C(O[C@H]2O[C@H](C)[C@@H](O)[C@H](N)[C@@H]2O)CC2O[C@](O)(CC(O)C(O)CCC(O)CC(O)CC(O)CC(=O)O[C@H]1C)CC(O)C2C(=O)O (stereo partly shown) [pure Nys, Nystatin] | 540 (≈ 583 µM) | 500 (≈ 540 µM) | about 3 μg/mL | 12 (≈ 13 µM) | 52.8 | 50.1 | 108.0 | 134.2 | 154.3 | 217.9 | ~120 | ~270 | 60 | about 55 μg/mL |  | 
sorbitan mono-9-octadecanoate [Tween 80®] |  |  |  |  |  |  |  |  |  |  |  |  |  |  | about 100 μM | less than 50 μg/mL

Source: patent US6413537B1, “Nystatin formulation having reduced toxicity” (Wisconsin Alumni Research Foundation, priority 2000, dated 2002)
